According to patent US12410157B2, “Compound useful as toll-like receptor 7 activation inhibitor” (TOYAMA PREFECTURAL UNIVERSITY, priority 2020, dated 2025):
Structures can show the parent of a compound that is named as a salt. Where two headings read alike, the source gives them in different places.

Key:
[1] = molecular target: T1, mouse TLR7 (Mus musculus, UniProt P58681); experiment: Inhibition of TLR7 activation in mouse TLR7-expressing NF-κB-GFP reporter Ba/F3 cells; format: cell-based; conditions: for TLR7 activation inhibitory activity, comparison in words: from IC50 of Table 3 / Table 5
T1 construct: expressed in transfected cells; host or cells: Ba/F3 cells (provided by Prof. Kensuke Miyake, University of Tokyo)
T1 sequence (P58681 27-1050): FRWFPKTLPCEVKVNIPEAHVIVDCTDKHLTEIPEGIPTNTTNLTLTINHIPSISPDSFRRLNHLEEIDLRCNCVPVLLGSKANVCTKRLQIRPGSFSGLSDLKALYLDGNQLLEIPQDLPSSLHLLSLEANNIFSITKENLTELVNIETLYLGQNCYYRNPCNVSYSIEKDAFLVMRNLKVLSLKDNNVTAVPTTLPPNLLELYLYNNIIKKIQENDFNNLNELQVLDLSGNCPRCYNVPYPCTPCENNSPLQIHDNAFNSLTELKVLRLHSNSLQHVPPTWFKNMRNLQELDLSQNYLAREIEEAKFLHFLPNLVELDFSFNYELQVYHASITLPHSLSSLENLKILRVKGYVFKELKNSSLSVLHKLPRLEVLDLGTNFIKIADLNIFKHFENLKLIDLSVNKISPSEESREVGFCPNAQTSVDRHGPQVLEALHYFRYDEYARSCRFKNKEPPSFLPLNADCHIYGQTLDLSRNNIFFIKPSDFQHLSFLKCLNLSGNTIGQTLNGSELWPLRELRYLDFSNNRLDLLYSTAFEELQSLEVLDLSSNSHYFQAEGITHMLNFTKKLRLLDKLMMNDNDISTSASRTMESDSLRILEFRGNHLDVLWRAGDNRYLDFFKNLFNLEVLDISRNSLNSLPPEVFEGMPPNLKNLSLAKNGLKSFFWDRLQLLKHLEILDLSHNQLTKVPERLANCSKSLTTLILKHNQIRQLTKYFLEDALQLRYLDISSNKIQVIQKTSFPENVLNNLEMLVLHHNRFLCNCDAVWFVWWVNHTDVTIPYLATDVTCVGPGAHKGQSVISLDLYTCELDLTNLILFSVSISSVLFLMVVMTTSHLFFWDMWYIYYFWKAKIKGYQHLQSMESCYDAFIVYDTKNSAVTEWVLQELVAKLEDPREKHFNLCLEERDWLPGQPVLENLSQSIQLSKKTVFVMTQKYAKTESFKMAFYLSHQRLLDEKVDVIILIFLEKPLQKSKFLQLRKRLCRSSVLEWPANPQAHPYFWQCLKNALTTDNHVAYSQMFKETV
Description: Mouse TLR7-expressing reporter cells (Ba/F3 cells) were used to evaluate inhibition of TLR7 activation in each derivative and CB-7. These cells were provided by Professor Kensuke Miyake (Department of Infection Genetics, Institute of Medical Science, University of Tokyo). These cells have been transfected with a reporter gene that connects GFP gene downstream of the promoter region of NF-κB. Therefore, the expression of GFP is enhanced by the addition of a ligand for TLR7 expressed by the cells. The fluorescence intensity of GFP was attenuated by the addition of each derivative, and the inhibition of TLR7 activation by each derivative was evaluated as an indicator.
Loxoribine (Alexis Biochemicals) was used as the ligand for mouse TLR7. Gardiquimod (Invivogen) was used as the ligand for human TLR7.
Ba/F3 cells cultured in RPMI 1640 medium containing 10% (v/v) fetal calf serum (FCS), 50 U/mL penicillin, 50 μg/mL streptomycin, 2 mM L-glutamine, […] 2-mercaptoethanol, 1 ng/mL interleukin-3 were aliquoted into 96-well plates so that the number of cells per well was 1.0×10^5 cells/100 μL. 50 μL of each derivative or CB-7, prepared to final concentrations of 1, 5, 10, 25, 50, and 100 µM, was added to each well. 96-well plates were incubated at 37° C. for 30 minutes in the presence of 5% CO2. Next, 250 μg/mL Roxoribin was added to each well and incubated for 18 hours. At the end of incubation, cells were washed with PBS (FACS buffer) containing 2.5% (v/v) FCS and suspended in 200 μL of FACS buffer containing 25 μg/mL […] for each cell. GFP fluorescence intensities of the cells were analyzed by flow cytometry. Flow cytometry measurement was performed on a FACSCanto™ II (Becton Dickinson) and data were analyzed with FlowJo software (Tree Star). The MFI (%) upon stimulation with roxoribin in the presence of […] derivatives or CB-7 was calculated using the MFI upon stimulation with roxoribin alone as 100%, and then IC50 (chemical compound concentration that inhibits activity by 50%) was calculated by logistic regression analysis.
The evaluation of the TLR7 activation inhibition by B2-24-4-5A·HCOOH was performed by the method described in Example 2. CB-7 and B2-24-4·HCl were used as controls.

[2] = tested on: Cytochrome P450 (CYP), mouse liver microsomes; experiment: Metabolic stability (CYP) using mouse liver microsomes, HPLC; format: in vitro ADME; conditions: for Number of peaks detected by HPLC: 0.1 mg/mL, 37° C., 30 minutes or 2 hours; for Drug metabolism mainly by CYPs compared to CB-7: words
Experimental: For CB-7, B2-24, and B2-5A, 10 mg/mL DMSO solution was used. Each chemical compound was diluted with acetonitrile to 0.1 mg/mL, which was used as the analytical standard. Mouse liver microsomal fractions were rapidly thawed in a warm bath at 37° C. and kept on ice. Reaction buffer containing CYP cofactor was prepared on ice and mixed with the microsomal fractions. The reaction solution was preincubated at 37° C. for 5 minutes, and then the test substance solution was added and mixed well by pipetting. The volume of the reaction solution was 200 μL and the final concentration of the test substance was 0.1 mg/mL. The reaction solution was incubated at 37° C. for 30 minutes or 2 hours, and the reaction was stopped by adding 3 times the volume of acetonitrile and vortexing. After the reaction was stopped, the samples were centrifuged, and each supernatant was separated and dried in an evaporator. 50 μL of 50% acetonitrile solution was added to each solidified sample, and each sample was re-dissolved by vortexing for 5 minutes. Each redissolved solution was centrifuged, and each supernatant was subjected to HPLC analysis using a HITACHI Lachrom ELITE (HITACHI) as a HPLC system and COSMOSIL 5C18-MS-II, 4.6 mmI.D.×150 mm (nacalai tesque Co.) as a column.
Metabolic stability analysis of CB-7 and B2-24-4-5A·HCOOH was performed by the method of Example 5.

[3] = Example 2, Ba/F3 reporter cells, loxoribine stimulation 18 hours, GFP MFI, read-out: IC50 of CB-7 derivatives with modified Areas a and b

| SMILES | IC50 [1, 3] | TLR7 activation inhibitory activity, comparison in words [1] | also measured |
| --- | --- | --- | --- |
| C=C(C)[C@@H]1CC[C@@](CO)(CC(=O)N2CCOCC2)C[C@H]1c1ccc(OC)cc1 [B2-6-7] | 9360 nM |  |  |
| C=C[C@]1(CO)CC[C@@H](C(=C)C)[C@H](c2ccc(COCCOC)cc2)C1 [B2-13] | 910 nM | higher TLR7 activation inhibitory activity than CB-7 |  |
| C=CC[C@]1(CO)CC[C@@H](C(=C)C)[C@H](c2ccc(OCC(C)CO)cc2)C1 (stereo partly shown) [B2-29] | 1740 nM | higher TLR7 activation inhibitory activity than CB-7 |  |
| C=C[C@]1(C(=O)OC)CC[C@@H](C(=C)C)[C@H](c2ccc(O)cc2)C1 [B2-27] | > 100000 nM |  |  |
| C=C[C@]1(CO)CC[C@@H](C(=C)C)[C@H](c2ccc(Oc3ccccc3)cc2)C1 [B2-21] | > 50000 nM |  |  |
| C=C(C)[C@@H]1CC[C@](CC(=O)O)(C(=O)OC)C[C@H]1c1ccc(OCCCO)cc1 [B2-5A-7-1] | > 10000 nM |  |  |
| C=C(C)[C@@H]1CC[C@]2(COC(=O)C2)C[C@H]1c1ccc(CN(CC)CC)cc1 [B2-5A-6] | 210 nM | higher TLR7 activation inhibitory activity than CB-7 |  |
| C=C(C)[C@@H]1CC[C@]2(COC(=O)C2)C[C@H]1c1ccc(OC)cc1 [B2-5A] | 2430 nM | higher TLR7 activation inhibitory activity than CB-7 | Predicted metabolic modifications (CYP) ([2]; Example 3): +O; Number of peaks detected by HPLC ([2]; Example 3): 4; Drug metabolism mainly by CYPs compared to CB-7 [2]: improved drug metabolism mainly by CYPs compared to CB-7 |
| C=C(C)[C@@H]1CC[C@@](CO)(CCN(C)C)C[C@H]1c1ccc(OC)cc1 [B2-6A] | > 100000 nM |  |  |
| C=C(C)[C@@H]1CC[C@]2(COC(=O)C2)C[C@H]1c1ccc(CN2CCCC2)cc1 [B2-5A-9] | 300 nM | higher TLR7 activation inhibitory activity than CB-7 |  |
| C=C[C@]1(CO)CC[C@@H](C(=C)C)[C@H](c2ccc(CN3CCC(F)(F)CC3)cc2)C1 [B2-24-1] | 1050 nM | higher TLR7 activation inhibitory activity than CB-7 |  |
| C=C(C)[C@@H]1CCC(O)(CN(C)C)C[C@H]1c1ccc(OC)cc1 (stereo partly shown) [B2-2A] | > 100000 nM |  |  |
| C=C[C@]1(CO)CC[C@@H](C(=C)C)[C@H](c2ccc(-c3ccccc3)cc2)C1 [B2-18] | > 50000 nM |  |  |
| C=C[C@]1(CC)CC[C@@H](C(=C)C)[C@H](c2ccc(CN(CC)CC)cc2)C1 [B2-22] | 310 nM | higher TLR7 activation inhibitory activity than CB-7 |  |
| C=C(C)[C@@H]1CC[C@@](COC)(CC(=O)O)C[C@H]1c1ccc(OC)cc1 [B2-5B] | > 100000 nM |  |  |
| C=C[C@]1(CO)CC[C@@H](C(=C)C)[C@H](c2ccc(-c3ccc(OC)cc3)cc2)C1 [B2-23] | > 100000 nM |  |  |
| C=C[C@]1(CO)CC[C@@H](C(=C)C)[C@H](c2ccc3ccccc3c2)C1 [B2-19] | > 100000 nM |  |  |
| C=CC[C@]1(CO)CC[C@@H](C(=C)C)[C@H](c2ccc(OCCCO)cc2)C1 [B2-28] | 1660 nM | higher TLR7 activation inhibitory activity than CB-7 |  |
| C=C(C)[C@@H]1CC[C@]2(COC(=O)C2)C[C@H]1c1ccc2ccccc2c1 [B2-5A-1] | > 100000 nM |  |  |
| C=C(C)[C@@H]1CCC(O)(CNS(C)(=O)=O)C[C@H]1c1ccc(OC)cc1 (stereo partly shown) [B2-3A] | > 10000 nM |  |  |
| C=C[C@]1(CO)CC[C@@H](C(=C)C)[C@H](c2ccc(CN3CCOCC3)cc2)C1 [B2-24-2] | 710 nM | higher TLR7 activation inhibitory activity than CB-7 |  |
| C=C(C)[C@@H]1CC[C@@](CO)(CC(=O)N(C)C)C[C@H]1c1ccc(OC)cc1 [B2-6] | > 100000 nM |  |  |
| C=C[C@]1(CO)CC[C@@H](C(=C)C)[C@H](c2ccc(CN3CC(F)(F)C3)cc2)C1 [B2-24-3] | 1260 nM | higher TLR7 activation inhibitory activity than CB-7 |  |
| C=C[C@]1(CO)CC[C@@H](C(=C)C)[C@H](c2ccc(COCCCO)cc2)C1 [B2-26] | 1260 nM | higher TLR7 activation inhibitory activity than CB-7 |  |
| C=C(C)[C@@H]1CC[C@]2(COC(=O)C2)C[C@H]1c1ccc(OCCCO)cc1 [B2-5A-7] | 2500 nM | higher TLR7 activation inhibitory activity than CB-7 |  |
| C=C(C)[C@@H]1CCC(=O)C[C@H]1c1ccc(OC)cc1 [I-7(Intermediate)] | > 100000 nM |  |  |
| C=C(C)[C@@H]1CC[C@]2(COC(=O)C2)C[C@H]1c1ccc(COCCOC)cc1 [B2-5A-4] | 2570 nM | higher TLR7 activation inhibitory activity than CB-7 |  |
| C=C[C@]1(CO)CC[C@@H](C(=C)C)[C@H](c2ccc(CN3CCCC3)cc2)C1 [B2-24] | 440 nM | higher TLR7 activation inhibitory activity than CB-7 | Number of peaks detected by HPLC ([2]; Example 3): 4; Drug metabolism mainly by CYPs compared to CB-7 [2]: improved drug metabolism mainly by CYPs compared to CB-7 |
| C=C[C@]1(CO)CC[C@@H](C(=C)C)[C@H](c2ccc(CN3CCNCC3)cc2)C1 [B2-24-4•HCl] | 87 nM |  | IC50 ([1]; Example 5, Table 5, method of Example 2, read-out: IC50): 167 nM |
